“And” between values parts separate entries of the source, which are not always exact repeats. Identical values can stand only once. “Also recorded” adds a separate entry of the source.
Experiments:
Assay type in all cases: in vivo
[1] = test system: L. infantum; assay: Clinical study in dogs infected with L. infantum: qPCR on spleen aspirates; settings: spleen aspirate, Glucantime 100 mg/kg dNMA SC or Fexinidazole 60 mg/kg PO once daily Days 0-27
Procedure: (§1) In a clinical study, dogs infected with L. infantum were treated with meglumine antimoniate (GLUCANTIME®, Merial) as a positive control, or FEX (Table 5). Eight blocks of two animals were formed based antibody titers and biological scores. Six dogs in each group were naturally infected by housing them in an endemic area for two years and two dogs in each group were artificially infected by intravenous administration of a known quantity of parasites recovered from the spleen of an infected dog.
(§2) The first group (FEX) was compared to the second group, which was treated with 27 mg/kg GLUCANTIME (meglumine antimoniate, or 100 mg/kg of dNMA) “GLU”), over 28 days.
(§3) Variables. The Clinical Score is an additive score of various clinical signs (body condition, lymphadenopathy, splenomegaly, appetite, behavior, mucous membrane color, dermatopathology, ocular signs, digestive signs, arthropathy) evaluated before treatment and on Days 7, 14, 21, 28, 57, 184, 219, 254, 282, 310, 345, 400 and 436. The Overall Biological Score is an additive score based on the severity of changes in hematology/chemistry values (creatinine, urine protein/creatinine, Hct, globulin, ALAT), evaluated pretreatment and on Days 28, 57, and 181. The L. infantum immunofluorescent antibody titers (IFAT) were determined from samples collected before treatment and on Days 28, 57, and 181. Finally, quantitative PCR (qPCR) for L. infantum was conducted on spleen aspirates collected before treatment and on Days 28, 57, 142, 184, and 373.

[2] = test system: L. infantum; assay: Clinical study in dogs infected with L. infantum: Clinical Score; parameters: key: additive score of clinical signs (body condition, lymphadenopathy, etc.); settings: Glucantime 100 mg/kg dNMA SC or Fexinidazole 60 mg/kg PO once daily Days 0-27
Procedure: as §1, §2, §3

[3] = test system: L. infantum; assay: Clinical study in dogs infected with L. infantum: overall outcome (cure, relapse, removal of animals); settings: canines, L. infantum
Procedure: as §1
The first group (FEX) was compared to the second group, which was treated with 27 mg/kg GLUCANTIME (meglumine antimoniate, or 100 mg/kg of dNMA) “GLU”), over 28 days. […]

[4] = test system: L. infantum; assay: Clinical study in dogs infected with L. infantum: Overall Biological Score; parameters: key: additive score of severity of hematology/chemistry changes; settings: Glucantime 100 mg/kg dNMA SC or Fexinidazole 60 mg/kg PO once daily Days 0-27
Procedure: as §1, §2, §3

Question: How did the “qPCR for L. infantum” value ([1]; Day 28, individual dogs) turn out when `CSc1ccc(OCc2ncc([N+](=O)[O-])n2C)cc1` [Fexinidazole, fexinidazole] was run?
Answer: Its value is “BLOQ (BLOQ = Below Level of Quantification = < log 3.64 copies/mL spleen aspirate)”.

Question: And the “qPCR for L. infantum” value ([1]; Day 57, individual dogs)?
Answer: Its value is “BLOQ (BLOQ = Below Level of Quantification = < log 3.64 copies/mL spleen aspirate)”.

Question: What about the “qPCR for L. infantum” value ([1]; Day 142, individual dogs) of the same molecule?
Answer: The value was “BLOQ (BLOQ = Below Level of Quantification = < log 3.64 copies/mL spleen aspirate)”.

Question: And the “qPCR for L. infantum” value ([1]; Day 184, individual dogs)?
Answer: Its value is “BLOQ (BLOQ = Below Level of Quantification = < log 3.64 copies/mL spleen aspirate)”.

Question: What about the “qPCR for L. infantum” value ([1]; Day 373, individual dogs) of the same molecule?
Answer: Its value is “BLOQ (BLOQ = Below Level of Quantification = < log 3.64 copies/mL spleen aspirate) (7×) and 3.82 log copies/mL”.

Question: What about the “qPCR for L. infantum” value ([1]; Day −7 (before treatment), individual dogs) of the same molecule?
Answer: The value was 7.19 log copies/mL and 7.11 log copies/mL and 5.21 log copies/mL and 5.57 log copies/mL and 6.58 log copies/mL and 5.81 log copies/mL and 6.01 log copies/mL and BLOQ (BLOQ = Below Level of Quantification = < log 3.64 copies/mL spleen aspirate).

Question: What about the “Clinical Score, group average” value ([2]; Day 7) of the same molecule?
Answer: The value was 2.8.

Question: And the “Clinical Score” value ([2]; Day 14, individual dogs)?
Answer: The value was 2 (2×) and 0 (2×) and 3 (3×).

Question: And the “Clinical Score, group average” value ([2]; Day 14)?
Answer: The value was 1.6.

Question: And the “Clinical Score” value ([2]; Day 21, individual dogs)?
Answer: The value was 0 (5×) and 2 (2×).

Question: What about the “Clinical Score, group average” value ([2]; Day 21) of the same molecule?
Answer: The value was 0.5.

Question: And the “Clinical Score” value ([2]; Day 28, individual dogs)?
Answer: The value was 0 (4×) and 1 (2×) and 2.

Question: And the “Clinical Score, group average” value ([2]; Day 28, Group 1 includes D21 data of Block 3 dog carried forward)?
Answer: Its value is 0.5.

Question: What about the “Clinical Score” value ([2]; Day 57, individual dogs) of the same molecule?
Answer: Its value is 2 (3×) and 0 (4×).

Question: What about the “Clinical Score, group average” value ([2]; Day 57, Group 1 includes D21 data of Block 3 dog carried forward) of the same molecule?
Answer: Its value is 0.8.

Question: What about the “Clinical Score” value ([2]; Day 184, individual dogs) of the same molecule?
Answer: Its value is 0.

Question: What about the “Clinical Score, group average” value ([2]; Day 184) of the same molecule?
Answer: The value was 0.1.

Question: What about the “Clinical Score” value ([2]; Day 219, individual dogs) of the same molecule?
Answer: The value was 0 (6×) and 1.

Question: What about the “Clinical Score, group average” value ([2]; Day 219) of the same molecule?
Answer: Its value is 0.1.

Question: What about the “Clinical Score” value ([2]; Day 254, individual dogs) of the same molecule?
Answer: The value was 0 (7×) and 4.

Question: And the “Clinical Score, group average” value ([2]; Day 254)?
Answer: The value was 0.5.

Question: What about the “Clinical Score” value ([2]; Day 282, individual dogs) of the same molecule?
Answer: The value was 0 (7×) and 2.

Question: And the “Clinical Score, group average” value ([2]; Day 282)?
Answer: The value was 0.3.

Question: What about the “Clinical Score” value ([2]; Day 310, individual dogs) of the same molecule?
Answer: The value was 0 (6×) and 2.

Question: What about the “Clinical Score, group average” value ([2]; Day 310) of the same molecule?
Answer: The value was 0.3.

Question: What about the “Clinical Score” value ([2]; Day 345, individual dogs) of the same molecule?
Answer: Its value is 0 (6×) and 2.

Question: What about the “Clinical Score, group average” value ([2]; Day 345) of the same molecule?
Answer: The value was 0.3.

Question: What about the “Clinical Score” value ([2]; Day 400, individual dogs) of the same molecule?
Answer: Its value is 0 (5×) and 1 and 2.

Question: What about the “Clinical Score, group average” value ([2]; Day 400) of the same molecule?
Answer: The value was 0.4.

Question: What about the “Clinical Score, group average” value ([2]; Day 436) of the same molecule?
Answer: The value was 0.4.

Question: What about the “Clinical Score, group average” value ([2]; Day −7 (before treatment)) of the same molecule?
Answer: Its value is 2.4.

Question: And the relapse ([3]; 180 days after treatment initiation)?
Answer: Its relapse is “No relapse was observed”.

Question: What about the “cure of Leishmania infection” value ([3]; oral 60 mg/kg/day for 28 days, qPCR-confirmed, 60 mg/kg/day) of the same molecule?
Answer: The value was “can substantially or completely eliminate or cure L. infantum infection in canines; also recorded: sufficient to cure canines of leishmania parasites; also recorded: complete curing efficacy”.

Question: And the “Overall Biological Score” value ([4]; Day 28, individual dogs)?
Answer: Its value is 3 (2×) and 2 (2×) and 1 (2×) and 0 (2×).

Question: And the “Overall Biological Score, group average” value ([4]; Day 28)?
Answer: Its value is 1.5.

Question: And the “Overall Biological Score” value ([4]; Day 57, individual dogs)?
Answer: Its value is 2 (3×) and 0 (3×) and 3 (2×).

Question: What about the “Overall Biological Score, group average” value ([4]; Day 57, Group 1 includes D28 data of Block 3 dog carried forward) of the same molecule?
Answer: Its value is 1.5.

Question: What about the “Overall Biological Score” value ([4]; Day 181, individual dogs) of the same molecule?
Answer: The value was 0 (5×) and 1 (2×) and 3.

Question: And the “Overall Biological Score, group average” value ([4]; Day 181, Group 1 includes D28 data of Block 3 dog carried forward)?
Answer: Its value is 0.6.

Question: What about the “Overall Biological Score” value ([4]; Day −14 (pretreatment), individual dogs) of the same molecule?
Answer: The value was 4 and 7 and 5 (2×) and 2 and 3 and 1 and 0.

Question: What about the “Overall Biological Score, group average” value ([4]; Day −14 (pretreatment)) of the same molecule?
Answer: The value was 3.4.

From US9585871B2, “Method for treating and curing leishmaniosis using fexinidazole” (Merial Limited, priority 2013, dated 2017)
